# Tests used:
# xenograft tumors [1] = assay: Response of subcutaneous xenograft tumors to MTKI in vivo; set-up: species or system nude immuno-compromised mice; key: R: A responder is predicted when minimally 4 peptides have a ratio <0.8; NR = Non-Responder to MTKI
# Experimental: (§1) To explore whether a similar approach allows for the classification of responder and non-responder tumors, the same strategy as above was applied to 12 different xenograft tumors, which were subcutaneously grown in nude immuno-compromised mice from human cancer cell lines. […] Lysates were made from homogenized frozen tumor blocks and analyzed in the absence or presence of 5 μM MTKI, as before.
# xenograft tumors [2] = assay: as above; set-up: species or system nude immuno-compromised mice; key: R = Responder to MTKI; NR = Non-Responder to MTKI
# Experimental: as §1
# [3] = tested on: 27 cell lines, representing diverse cancer cell types; assay: Inhibition of proliferation of cell lines in vitro (response status); type: cell-based; set-up: key: R = Responder to MTKI; NR = Non-Responder to MTKI; details: MTKI
# Experimental: (§2) It was tested whether the Pamchip peptide arrays are a useful tool to predict the response of a cell line to the multi-targeted kinase inhibitor, MTKI. MTKI inhibits the proliferation of a range of cell lines in vitro with widely varying IC50's. The lysates prepared from these 27 cell lines, representing diverse cancer cell types, were profiled on the peptide arrays in the absence or presence of 5 μM MTKI, in 6 replicates for each condition. In this panel, 13 cell lines were defined as responder cell lines (IC50<3 μM; cell lines are ordered according to increasing IC50 in Example 1, whereas 14 cell lines are classified as ‘non-responder’ cell lines (IC50>10 μM). Intermediary cell lines and cell lines with highly variable IC50 measurements were omitted from the analysis. The experiment included the highly responsive H3255 lung cancer cell line, which overexpresses mutant EGFR L858R. This mutant variant is highly responsive to MTKI, which is an ATP-competitive compound that binds to the active conformation of EGFR (similar to erlotinib and gefitinib). Accordingly, the most profound changes induced by MTKI in lysate kinase activity can be observed for this highly responsive cell line. To identify those peptides for which the inhibition of phosphorylation by MTKI correlates well with the response status of the cell line from which the lysate was prepared, a statistical mixed-model was set up to identify those peptides that are most likely to change after MTKI treatment in responder cell lysates compared to non-responder lysates, taken into account the inter-replicate variability (see the material and methods section for a more detailed description of the statistical test). […] To illustrate that the inhibition of the phosphorylation of these peptides in a given lysate does indeed correlate with the response of the corresponding cell line to MTKI, the following cut-off was chosen to classify responders and non-responders: minimally 4 peptides out of the 16 peptide list should be inhibited with a ratio of less than 0.8 (more than 20% inhibition) to classify as a responder. Applying this rule to all 27 cell lines indicates an overall classification accuracy of 82% (with 78% sensitivity, and 86% specificity). […] Note that the use of these […] peptides as a classification tool can be optimized according to the required sensitivity and specificity.
# [4] = tested on: 27 cell lines, representing diverse cancer cell types; assay: as above; type: cell-based; details: response to MTKI
# Experimental: as §2
# Her2 = Her2 (Homo sapiens, UniProt P04626); assay: Her2 inhibition; type: biochemical
# Her2, sequence (P04626 23-1255): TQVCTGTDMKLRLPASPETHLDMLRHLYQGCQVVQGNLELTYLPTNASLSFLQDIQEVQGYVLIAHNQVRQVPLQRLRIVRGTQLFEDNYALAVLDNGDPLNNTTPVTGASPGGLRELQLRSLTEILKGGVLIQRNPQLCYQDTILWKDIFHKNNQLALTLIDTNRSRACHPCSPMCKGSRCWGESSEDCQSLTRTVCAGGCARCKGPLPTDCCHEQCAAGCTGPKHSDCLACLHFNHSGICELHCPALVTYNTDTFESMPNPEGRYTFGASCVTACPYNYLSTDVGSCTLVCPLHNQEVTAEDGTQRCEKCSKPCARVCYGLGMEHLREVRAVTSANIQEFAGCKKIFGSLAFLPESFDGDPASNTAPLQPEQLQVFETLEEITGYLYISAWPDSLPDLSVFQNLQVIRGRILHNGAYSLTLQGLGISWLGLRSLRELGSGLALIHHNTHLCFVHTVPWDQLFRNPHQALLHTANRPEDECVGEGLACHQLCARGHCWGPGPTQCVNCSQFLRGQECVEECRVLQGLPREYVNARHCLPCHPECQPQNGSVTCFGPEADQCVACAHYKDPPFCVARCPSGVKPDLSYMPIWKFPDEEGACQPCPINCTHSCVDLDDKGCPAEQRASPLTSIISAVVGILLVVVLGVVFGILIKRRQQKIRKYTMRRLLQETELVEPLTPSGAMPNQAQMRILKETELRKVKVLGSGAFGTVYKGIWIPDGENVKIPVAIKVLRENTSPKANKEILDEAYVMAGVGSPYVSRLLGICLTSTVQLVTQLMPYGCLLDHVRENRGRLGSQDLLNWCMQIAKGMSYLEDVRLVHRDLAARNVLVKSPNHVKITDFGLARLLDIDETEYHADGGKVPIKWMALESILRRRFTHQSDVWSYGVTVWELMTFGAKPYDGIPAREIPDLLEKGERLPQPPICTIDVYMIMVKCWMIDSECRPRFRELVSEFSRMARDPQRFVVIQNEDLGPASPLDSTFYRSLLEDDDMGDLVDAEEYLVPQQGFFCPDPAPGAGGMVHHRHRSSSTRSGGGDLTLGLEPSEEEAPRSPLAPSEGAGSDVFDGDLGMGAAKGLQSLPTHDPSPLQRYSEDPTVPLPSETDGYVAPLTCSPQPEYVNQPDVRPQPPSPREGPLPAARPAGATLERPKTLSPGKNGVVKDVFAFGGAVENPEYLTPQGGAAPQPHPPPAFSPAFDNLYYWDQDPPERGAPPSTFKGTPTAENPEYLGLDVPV
# EGFR L858R = EGFR L858R (Homo sapiens, UniProt P00533, L858R); assay: IC50 on mutant EGFR; type: biochemical
# EGFR L858R, sequence (P00533 25-1210 L858R): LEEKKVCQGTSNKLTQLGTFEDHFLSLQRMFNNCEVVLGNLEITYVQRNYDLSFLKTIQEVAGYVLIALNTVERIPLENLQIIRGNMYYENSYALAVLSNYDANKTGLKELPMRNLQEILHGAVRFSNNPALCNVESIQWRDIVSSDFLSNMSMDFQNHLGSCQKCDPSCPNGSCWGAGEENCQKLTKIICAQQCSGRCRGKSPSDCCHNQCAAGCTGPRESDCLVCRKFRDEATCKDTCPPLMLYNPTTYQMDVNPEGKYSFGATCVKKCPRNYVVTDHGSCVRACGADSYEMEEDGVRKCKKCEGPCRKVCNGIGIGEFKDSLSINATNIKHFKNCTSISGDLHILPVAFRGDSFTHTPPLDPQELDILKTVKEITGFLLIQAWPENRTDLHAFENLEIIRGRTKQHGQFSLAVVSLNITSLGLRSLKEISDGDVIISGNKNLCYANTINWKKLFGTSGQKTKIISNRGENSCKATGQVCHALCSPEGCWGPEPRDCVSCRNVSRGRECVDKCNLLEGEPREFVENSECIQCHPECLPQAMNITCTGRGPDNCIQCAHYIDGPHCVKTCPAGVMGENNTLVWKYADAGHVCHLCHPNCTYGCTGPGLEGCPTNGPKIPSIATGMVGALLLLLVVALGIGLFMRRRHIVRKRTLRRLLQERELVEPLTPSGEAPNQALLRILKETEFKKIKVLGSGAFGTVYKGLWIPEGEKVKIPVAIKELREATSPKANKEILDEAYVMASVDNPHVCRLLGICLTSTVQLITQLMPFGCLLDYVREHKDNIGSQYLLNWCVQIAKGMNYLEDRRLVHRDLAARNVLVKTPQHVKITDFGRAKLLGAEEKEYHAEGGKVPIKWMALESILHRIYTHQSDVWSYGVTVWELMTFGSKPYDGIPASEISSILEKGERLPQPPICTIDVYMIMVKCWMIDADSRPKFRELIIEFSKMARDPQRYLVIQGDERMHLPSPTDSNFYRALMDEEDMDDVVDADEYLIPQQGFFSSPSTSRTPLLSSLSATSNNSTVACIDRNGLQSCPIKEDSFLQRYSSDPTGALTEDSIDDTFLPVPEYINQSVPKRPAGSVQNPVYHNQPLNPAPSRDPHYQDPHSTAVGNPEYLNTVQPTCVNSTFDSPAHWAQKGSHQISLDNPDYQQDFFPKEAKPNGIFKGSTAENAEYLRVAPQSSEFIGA
# xenograft tumors [5] = assay: Response of subcutaneous xenograft tumors to MTKI in vivo; set-up: species or system nude immuno-compromised mice; details: for response status: response to MTKI in vivo
# Experimental: as §1
smiles,measurement,setting,value
"COc1cc2ncnc3c2cc1OCCCCCN(C)Cc1ccc(Br)cc1N3 [MTKI, 4,6-ethanediylidenepyrimido[4,5-b][6,1,12]benzoxadiazacyclopentadecine, 17-bromo-8,9,10,11,12,13,14,19-octahydro-20-methoxy-13-methyl-]",response status,xenograft tumors [1]; H441 xenograft tumor,NR
same,response status,xenograft tumors [1]; H460 xenograft tumor,NR
same,response status,xenograft tumors [1]; H1703 xenograft tumor,NR
same,response status,xenograft tumors [1]; HT29 xenograft tumor,NR
same,response status,xenograft tumors [1]; PC3 xenograft tumor,NR
same,response status,xenograft tumors [1]; SKOV3 xenograft tumor,NR
same,response status,xenograft tumors [1]; U87MG xenograft tumor,NR
same,response status,xenograft tumors [2]; A431 xenograft tumor,R
same,response status,xenograft tumors [2]; BT474 xenograft tumor,R
same,response status,xenograft tumors [2]; DU145 xenograft tumor,R
same,response status,xenograft tumors [2]; H322 xenograft tumor,R
same,response status,xenograft tumors [2]; H3255 xenograft tumor,R
same,response status,xenograft tumors [2]; SUM149 xenograft tumor,R
same,response status,[3]; A431 cell line,R
same,response status,[3]; DU145 cell line,R
same,response status,[3]; H2009 cell line,R
same,response status,[3]; H3255 cell line,R
same,response status,[3]; N87 cell line,R
same,response status,[3]; SKBR3 cell line,R
same,response status,[3]; SUM149 cell line,R
same,IC50,[4]; BT474OD cell line,< 3 µM
same,IC50,"[4]; COLO 699, Colo699 cell line",< 3 µM
same,IC50,"[4]; HEK239, HEK239 cell line",> 10 µM
same,IC50,[4]; HT1373 cell line,> 10 µM
same,IC50,"[4]; Homo sapiens, A-431, A431 cell line",< 3 µM
same,IC50,"[4]; Homo sapiens, DU-145, DU145 cell line",< 3 µM
same,IC50,"[4]; Homo sapiens, GTL 16, GTL16 cell line",> 10 µM
same,IC50,"[4]; Homo sapiens, MCF7, MCF7 cell line",> 10 µM
same,IC50,"[4]; Homo sapiens, MDA-MB-435S, MDAMB435s cell line",> 10 µM
same,IC50,"[4]; Homo sapiens, MKN-45, MKN45 cell line",> 10 µM
same,IC50,"[4]; Homo sapiens, MOLT-4, MOLT4 cell line",> 10 µM
same,IC50,"[4]; Homo sapiens, NCI-H23, H23 cell line",> 10 µM
same,IC50,"[4]; Homo sapiens, NCI-H1650, H1650 cell line",> 10 µM
same,IC50,"[4]; Homo sapiens, NCI-H2009, H2009 cell line",< 3 µM
same,IC50,"[4]; Homo sapiens, NCI-H2122, H2122 cell line",< 3 µM
same,IC50,"[4]; Homo sapiens, NCI-H3255, H3255 cell line",< 3 µM
same,IC50,"[4]; Homo sapiens, NCI-N87, NCI-N87 cell line",< 3 µM
same,IC50,"[4]; Homo sapiens, SH-SY5Y, SHSY5Y cell line",> 10 µM
same,IC50,"[4]; Homo sapiens, SK-BR-3, SKBR3 cell line",< 3 µM
same,IC50,"[4]; Homo sapiens, SNU-5, SNU5 cell line",> 10 µM
same,IC50,"[4]; Homo sapiens, U-118-MG, U118MG cell line",> 10 µM
same,IC50,[4]; MDA231PAR cell line,> 10 µM
same,IC50,"[4]; NCI-H322, H322 cell line",< 3 µM
same,IC50,[4]; RSJSA1 cell line,> 10 µM
same,IC50,"[4]; SNU-484, SNU484 cell line",< 3 µM
same,IC50,"[4]; SUM149, SUM149 cell line",< 3 µM
same,IC50,"[4]; SUM159, SUM159 cell line",< 3 µM
same,inhibition of Her2 compared to Tarceva,Her2,better inhibitor than Tarceva
same,IC50 on EGFR 1858R compared to Tarceva,EGFR L858R,lower IC50
same,response status,xenograft tumors [5]; A431 xenograft tumor,R
same,response status,xenograft tumors [5]; BT474 xenograft tumor,R
same,responsiveness of xenograft tumors in vivo,"xenograft tumors [5]; DU145, SUM149 and BT474 tumors",potent inhibition of tumor growth
same,response status,xenograft tumors [5]; DU145 xenograft tumor,R
same,response status,xenograft tumors [5]; H322 xenograft tumor,R
same,responsiveness of xenograft tumors in vivo,"xenograft tumors [5]; H460 and H441, HT29, PC3, SKOV3, H1703 tumors",non-responsive
same,responsiveness of xenograft tumors in vivo,"xenograft tumors [5]; H3255, A431 and H322 tumors",abrupt tumor regression
same,response status,xenograft tumors [5]; H3255 xenograft tumor,R
same,response status,xenograft tumors [5]; SUM149 xenograft tumor,R
